Measurements: patent US4118424A, “Biodegradable insecticides” (priority 1976, dated 1978)
Converted amounts (≈) assume the structure as drawn.

Tests used:
[1] = system: Anopheles albimanus adults; assay: Insect toxicity, Anopheles albimanus adults; format: in vivo
Culex fatigans larvae = assay: Insect toxicity, Culex fatigans larvae; format: in vivo; details: Culex quinquefasciatus
Phormia regina = assay: Insect toxicity, Phormia regina; format: in vivo
mice = assay: Mouse toxicity, LD50; format: in vivo; details: versus ethoxychlor
Mouse toxicity, LD50 = format: in vivo, mice; details: in vivo
[2] = system: insects (flies and mosquitoes); assay: Insecticidal activity, general statement; format: in vivo; details: versus ethoxychlor
Excerpt: Metabolic studies involving insects, mice, and fish and a model ecosystem (such as described in U.S. Pat. No. 3,787,505) and insecticidal activity studies generally involving flies and mosquitoes have shown that both the symmetrical and the asymmetrical compounds of the present invention are effective. Thus, the new compounds can be represented by the general formula: [drawing 3] where R1 is H or Cl and R2 is CH3 or Cl, X and X^1 are the same or different and each is selected from the group consisting of C1 to C3 alkyl groups and C1 to C4 alkoxy groups.

[3] = system: green sunfish (Lepomis cyanellus); assay: Green sunfish toxicity over a period of time; format: in vivo; details: initial concentration 0.1 ppm
Excerpt: The compounds of Example III, V, XI, XIV and XXI were further tested and compared with ethoxychlor to determine fish toxicities over a period of time. In these tests, green sunfish (Lepomis cyanellus) were subject to an initial concentration dosage of 0.1 ppm and the number of days that 100 percent mortalities occurred was observed.

[4] = system: Musca domestica (NAIDM strain); assay: Insect toxicity, Musca domestica NAIDM strain; format: in vivo; details: for LD50: Musca domestica, without PB; for Musca domestica NAIDM (w/PB) LD50: with PB
Culex fatigans = assay: Persistence on plywood surfaces of test huts, Culex fatigans; format: in vivo; details: adult mosquitoes
Procedure: (§1) The persistence of some of the compounds of the present invention was evaluated and compared with that of ethoxychlor. In these tests, the compounds were applied to the plywood surfaces of test huts and the mortalities of adult mosquitoes contained in the huts were measured to determine the number of weeks that 50% mortality continued to occur.

Culex fatigans adults = assay: Insect toxicity, Culex fatigans adults; format: in vivo
Anopheles albimanus = assay: Persistence on plywood surfaces of test huts, Anopheles albimanus; format: in vivo; details: adult mosquitoes
Procedure: as §1

[5] = system: Musca domestica Rsp strain; assay: Insect toxicity, Musca domestica Rsp strain, DDT-resistant; format: in vivo; details: for LD50: Musca domestica, without PB; for Musca domestica Rsp strain w/PB LD50: with PB
[6] = system: Anopheles albimanus larvae; assay: Insect toxicity, Anopheles albimanus larvae; format: in vivo

SMILES | Anopheles albimanus adults LC50 [1] [ug/cm^2] | LC50 (Culex fatigans larvae) [µg/mL] | LD50 (Phormia regina) [mg/kg] | safety to mice relative to ethoxychlor (mice) | LD50 (Mouse toxicity, LD50) [mg/kg] | insecticidal activity relative to ethoxychlor [2] | Number of days 100% mortality [3] [days] | LD50 [4] [mg/kg] | Musca domestica NAIDM (w/PB) LD50 [4] [µg/g] | Culex fatigans, P50 (number of weeks that at least 50% mortality occurred) (Culex fatigans) [weeks] | Culex fatigans adults-LC50 (Culex fatigans adults) [ug/cm^2] | Anopheles albimanus, P50 (number of weeks that at least 50% mortality occurred) (Anopheles albimanus) [weeks] | LD50 [5] [mg/kg] | Musca domestica Rsp strain w/PB LD50 [5] [µg/g] | LC50 [6] [µg/mL]
CCOc1ccc(C(c2ccc(OCC)cc2)C(C)Cl)cc1 (stereo not drawn) [V] | 7.9 | 0.054 (≈ 0.169 µM) | 4.62 | at least five times safer to mice than is ethoxychlor | ≥ 1000 | at least generally comparable to ethoxychlor | 4 | 9.5 | 2 | > 70 | 56 | > 80 | 18 | 4.9 | 0.047 (≈ 0.147 µM)
CCCOc1ccc(C(c2ccc(OCC)cc2)C(C)C)cc1 (stereo not drawn) [XII] | 35 | 0.39 (≈ 1.25 µM) | 60 | at least five times safer to mice than is ethoxychlor | ≥ 1000 | at least generally comparable to ethoxychlor |  | 21 | 6.5 |  | > 160 |  | 42 | 22.5 | 0.056 (≈ 0.179 µM)
CCOc1ccc(C(c2ccc(OCC)cc2)C(C)(C)Cl)cc1 [XXI] | > 160 | > 1 | > 250 | at least five times safer to mice than is ethoxychlor | ≥ 1000 | at least generally comparable to ethoxychlor | 0 | 115 | 12 |  | > 160 |  | 180 | 25.5 | > 1
CCCOc1ccc(C(c2ccc(OCCC)cc2)C(C)C)cc1 [XIII] | > 160 | 0.3 (≈ 0.919 µM) | 200 |  |  |  |  | 100 | 21.5 |  | > 160 |  | 185 |  | 0.25 (≈ 0.766 µM)
CCCOc1ccc(C(c2ccc(OCC)cc2)C(C)Cl)cc1 (stereo not drawn) [VI] | 14.5 | 0.05 (≈ 0.15 µM) | 62.5 |  |  |  |  | 15.5 | 3.2 |  | > 160 |  | 25 | 5.5 | 0.075 (≈ 0.225 µM)
CCCc1ccc(C(c2ccc(CCC)cc2)C(C)Cl)cc1 (stereo not drawn) [IX] | 17 | 0.145 (≈ 0.46 µM) | > 250 |  |  |  |  | 55 | 45 |  | > 160 |  | 120 | 90 | 0.068 (≈ 0.216 µM)
Cc1ccc(C(c2ccc(C)cc2)C(C)Cl)cc1 (stereo not drawn) [Example II] | 6.9 | 0.22 (≈ 0.85 µM) | > 250 |  |  |  |  | > 500 | 24.5 |  | 9.7 |  | > 500 | 140 | > 1
CCCOc1ccc(C(c2ccc(C)cc2)C(C)C)cc1 (stereo not drawn) [XV] | 29 | 0.55 (≈ 1.95 µM) | 250 |  |  |  |  | 175 | 100 |  | > 160 |  | 370 | 220 | 0.42 (≈ 1.49 µM)
CCOc1ccc(C(c2ccc(C)cc2)C(C)C)cc1 (stereo not drawn) [XIV] | 5 | 0.052 (≈ 0.194 µM) | 35 | at least five times safer to mice than is ethoxychlor | ≥ 1000 | at least generally comparable to ethoxychlor | 0 | 70 | 18 | 4 | 5.0 | 6 | 150 | 31 | 0.275 (≈ 1.02 µM)
CCOc1ccc(C(c2ccc(OCC)cc2)C(C)C)cc1 [Example XI] | 4.5 | 0.08 (≈ 0.268 µM) | 14.5 | at least five times safer to mice than is ethoxychlor | ≥ 1000 | at least generally comparable to ethoxychlor | > 35 | 21.5 | 3.5 | 40 | 14.3 | > 44 | 38 | 12.5 | 0.028 (≈ 0.0938 µM)
CCOc1ccc(C(c2ccc(OCC)cc2)C(C)(Cl)Cl)cc1 [Example XIX] | 49 | 0.094 (≈ 0.266 µM) | 24 |  | < 300 |  |  | 17.5 | 7 | 40 | > 160 | > 20 | 90 | 23.5 | 0.041 (≈ 0.116 µM)
Cc1ccc(C(c2ccc(C)cc2)C(C)(Cl)Cl)cc1 [XVII] | 5 | 0.2 (≈ 0.682 µM) | 8 |  |  |  |  | 145 | 18 |  | 8.0 |  | 270 | 7.0 | 0.13 (≈ 0.443 µM)
CCCc1ccc(C(c2ccc(C)cc2)C(C)Cl)cc1 (stereo not drawn) [VIII] | 7.2 | 0.18 (≈ 0.628 µM) | 97.5 |  |  |  |  | 65 | 29 |  | 12 |  | 155 | 85 | 0.18 (≈ 0.628 µM)
CCCOc1ccc(C(c2ccc(OCCC)cc2)C(C)Cl)cc1 (stereo not drawn) [VII] | > 160 | 0.12 (≈ 0.346 µM) | 42.5 |  |  |  |  | 28 | 10 |  | > 160 |  | 85 | 42 | 0.16 (≈ 0.461 µM)
COc1ccc(C(c2ccc(OC)cc2)C(C)(Cl)Cl)cc1 [XVIII] | 1.63 | 0.061 (≈ 0.188 µM) | 13.5 |  |  |  |  | 65 | 8 |  | > 160 |  | 155 | 9.5 | 0.18 (≈ 0.553 µM)
COc1ccc(C(c2ccc(OC)cc2)C(C)(C)Cl)cc1 [XX] | 16 | > 1 | 75 |  |  |  |  | > 500 | 12 |  | > 160 |  | > 500 | 26 | > 1
CCOc1ccc(C(c2ccc(OCC)cc2)C(Cl)(Cl)Cl)cc1 [ethoxychlor, reference compound] |  |  |  |  |  |  | 21 |  |  | 8 |  | > 44 |  |  | 
CCOc1ccc(C(c2ccc(OC)cc2)C(C)Cl)cc1 (stereo not drawn) [IV] | 27 | 0.15 (≈ 0.492 µM) | 12 |  |  |  |  | 47 | 4.7 |  | > 160 |  | 100 | 4.8 | 0.15 (≈ 0.492 µM)
CCOc1ccc(C(c2ccc(OC)cc2)C(C)C)cc1 (stereo not drawn) [Example X] | 6.3 | 0.13 (≈ 0.457 µM) | 28.5 |  |  |  |  | 65 | 12 |  | 16.5 |  | 110 | 17.5 | 0.17 (≈ 0.598 µM)
CCCCOc1ccc(C(c2ccc(C)cc2)C(C)C)cc1 (stereo not drawn) [XVI] | > 160 | > 1 | > 250 |  |  |  |  | > 500 | 240 |  | > 160 |  | > 500 | > 500 | 0.19 (≈ 0.641 µM)
